From publication PMC10094418, “Butein Inhibits Cell Growth by Blocking the IL-6/IL-6Rα Interaction in Human Ovarian Cancer and by Regulation of the IL-6/STAT3/FoxO3a Pathway” (International Journal of Molecular Sciences, 2023) come the findings set out here.

For test [1], the target named is T1, IL-6 (Homo sapiens, UniProt P05231).
T1 construct: purchased PeproTech
Nature of the test: Surface plasmon resonance, immobilized IL-6. It counts as binding. Conditions: SPR, CM5 chip, steady-state KD. The protocol: The surface plasmon resonance (SPR) assay was measured using the BIAcore T200 model (GE Healthcare, Chicago, IL, USA) with HBS-EP buffer (1×HBS-EP, GE Healthcare, Chicago, IL, USA) containing 5% dimethyl sulfoxide (DMSO; Sigma-Aldrich, St. Louis, MO, USA). The pH scouting for IL-6 (PeproTech, Rocky Hill, NJ, USA), IL-6Rα (PeproTech, Rocky Hill, NJ, USA), and gp130 (Sino Biological, Beijing, China, or ANRT, Daejeon, Korea) immobilization was performed in 10 mM acetate buffer at pH 4.5. IL-6, IL-6Rα, and gp130 were immobilized on a CM5 chip at 750, 1200, and 2000 response units (RU). Butein was injected into the IL-6, IL-6Rα and gp130-immobilized flow cell at concentrations of 10, 20, 30, 40, 50, 60, 70, 80, 90, and 100 μM with a 25 μL/min flow rate for 150 s and allowed to dissociate for 300 s. Steady-state KD was determined via the T-200 BIAevaluation software (GE Healthcare, Chicago, IL, USA).
Background: Surface plasmon resonance follows binding to a sensor surface in real time, without labels.

Test [2] has as its system A2780 cells. Description: Clonogenic formation assay, A2780. The note with it: compared with control siltuximab-treated cells. It counts as cell-based, human. The protocol:
(§1) A2780 and SKOV3 cell lines were seeded at approximately 5000 cells/well in 24-well plates. Butein was added to the cell medium at various concentrations (5, 10, and 25 μM) together with control siltuximab (CTNO328; EUSA Pharma, Inc., Hemel Hempstead, UK) for 12 h. After 2 weeks, the colonies formed were fixed with fixer buffer, stained with crystal violet, and imaged with a ChemiDoc imaging system (Bio-Rad, Herles, CA, USA).

For test [3], the system named is SKOV3 cells. Nature of the test: Flow cytometric cell cycle analysis (PI), SKOV3. It counts as cell-based, human. The note with it: butein treatment; 58.3% under control conditions. The protocol:
(§2) A2780 and SKOV3 cell lines were treated with control (siltuximab 10 μM) and butein (5, 10, and 25 μM). After 6 h, the cells were fixed with 70% ethanol for cell cycle analysis and stained with propidium iodide (PI). Cell death was analyzed using the FITC Annexin V Apoptosis Detection kit with 7-AAD (Cat.no. 640922, BioLegend, San Diego, CA, USA). Cells were sorted using a FACS Canto II (BD Biosciences, Franklin Lakes, NJ, USA) and cell cycle and apoptosis were analyzed using BD FACS Diva software version 6. 2. Analysis (BD Biosciences, Franklin Lakes, NJ, USA) was performed in triplicate.

In test [4] the test system is STAT3 phosphorylation in A2780 cells. Nature of the test: Western blotting of STAT3 phosphorylation, A2780. It counts as cell-based, human. The note with it: relative to IL-6 treated cells. The protocol:
After each drug treatment of the cells, the cells were dissolved in 100 μL of radioimmunoprecipitation assay (RIPA) buffer (Thermo Fisher Scientific Inc., Waltham, MA, USA) and centrifuged to separate the supernatant containing protein. Isolated protein concentrations were measured using the Pierce BCA Protein Assay Kit (Thermo Fisher Scientific Inc., Waltham, MA, USA). Aliquots of proteins quantified at […] were boiled at 100 °C in 5× sample buffer, separated on a 12% SDS-polyacrylamide gel and electrophoresed onto polyvinylidene difluoride (PDVF) membranes (Millipore, Billerica, MA, USA). The PDVF membranes were blocked for 1 h at 25 °C with 5% BSA in 1× tris buffered saline containing 0.05% Tween20 (TBST) (Sigma-Aldrich, St. Louis, MO, USA). The membrane was incubated in the primary antibody at 4 °C overnight. PDVF membranes were washed with 1× TBST and incubated with AffiniPure goat anti-rabbit IgG secondary antibody (Jackson Immunoresearch, West Grove, PA, USA) for 1 h at room temperature. After washing again with TBST buffer, enhanced signals were detected using the SuperSignal™ West Femto Maximum Sensitivity Substrate kit (cat.no. 34094, Thermo Scientific, Rockford, IL, USA). The blot was imaged using the ChemiDoc imaging system (Bio-Rad, Herles, CA, USA), and protein expression was quantified with the ImageJ software (v1.8.0).

The subject of test [5] is SKOV3 cells. Description: Clonogenic formation assay, SKOV3. In kind it is cell-based, human. The note with it: compared with control siltuximab-treated cells. The protocol: as §1
For test [6], the target named is T2, IL-6/IL-6Rα interaction (Homo sapiens, UniProt P05231).
T2 construct: purchased BioLegend (IL-6); Acro biosystems (IL-6Ra) 570806 (IL-6); ILR-H5259 (IL-6Ra)
Nature of the test: ELISA of the IL-6/IL-6Rα interaction. Conditions: at 20 μM. In kind it is binding. The procedure: An amount of 0.5 μg/mL rhIL-6 protein (Cat.no.570806, BioLegend) was coated onto 96-well ELISA plates at 4 °C overnight, and then the plates were washed with PBST (1 × PBS containing 0.05% Tween-20), followed by the addition of PBSA (1 × PBS containing 1% bovine serum albumin (BSA)) (Bovogen, East Keilor, Australia) for 1 h at room temperature. After blocking, the FDA-approved compounds (20 uM) (Cat.no. L-1300, Selleckchem, Houston, TX, USA) were incubated for 2 h at room temperature. After washing three times with PBST, 0.2 μg/mL recombinant IL-6Ra protein (Cat.no.ILR-H5259, Acro biosystems, Newark, DE, USA) was added to the plates, which were incubated for 1 h. After washing three times with PBST, HRP-conjugated goat anti-human IgG Ab (Cat.no. 10-035-098, Jackson Immno, Hatfield, West Grove, PA, USA) was added to the plates and incubated for 1 h. After washing three times with PBST, TMB solution (Cat.no.11684302001, Roche, Mannheim, Germany) was added to the plates and incubated for 15 min. Then, stop solution (2N HCl) was added to the plates. The absorbance was measured at 450 nm using the Epoch microplate spectrophotometer (BioTek instruments, Winooski, VT, USA).

Test [7] deals with SKOV3 cells. Nature of the test: Annexin V apoptosis assay, SKOV3. In kind it is cell-based, human. Conditions: dose-dependent, p < 0.005. The protocol: as §2
Test [8] has as its system SKOV3 cells. Nature of the test: Matrigel invasion assay, SKOV3. The note with it: 48 h. It counts as cell-based, human. The procedure: Matrigel invasion assays were performed using a BioCoat Matrigel Invasion Chamber (BD Bioscience, Bedford, MA, USA). A2780 and SKOV3 cells (50,000 cells) were placed inside the chamber in serum-free medium containing 500 μL of drugs, and 700 μL of medium containing serum were placed outside the chamber. After incubation for 48 h, the infiltrating cells were stained using the Differential Quick Stain Kit (Cat.no. 26096-50, Electron Microscopy Sciences, Hatfield, PA, USA). Cells were imaged with a Slide Scanner (Aperio CS2, Leica Microsystems, Wetzlar, Germany) and the number of invading cells was quantified using Image J.

pKd: −log10 of the molar value.

T1 sequence (P05231 30-212): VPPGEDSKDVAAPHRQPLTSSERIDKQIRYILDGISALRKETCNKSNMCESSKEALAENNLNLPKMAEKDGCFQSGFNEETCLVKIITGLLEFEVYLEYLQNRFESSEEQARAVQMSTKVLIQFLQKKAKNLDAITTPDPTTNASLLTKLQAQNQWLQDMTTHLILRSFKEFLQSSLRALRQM
T2 sequence (P05231 30-212): as above

For the compound `O=C(/C=C/c1ccc(O)c(O)c1)c1ccc(O)cc1O` [butein], in test [1], the pKd was 4.04. For the same compound, the “Clonogenicity, A2780” value in test [2] was “significantly inhibited”. Further, in test [3], the “SKOV3 cells in G1-phase” value stood at 65.8%. Also, in test [4], the “Phosphorylation of STAT3, A2780” value is listed as “inhibited in a concentration-dependent manner”. Further, the “Clonogenicity, SKOV3” value in test [5] is “significantly inhibited”. Also, the “Reduction of the interaction between IL-6 and IL-6Rα” value in test [6] was 21.7%. In addition, in test [7], the “Total apoptosis, SKOV3” value was “significantly increase”. In addition, the “Cell infiltration (invasion), SKOV3” value in test [8] is reported as “similarly affected”.

One may read the pKd as the negative decadic logarithm of the Kd, by convention in mol/L. A lower pKd goes with a high Kd.
